This is an account of results in US20250032625A1, “HETEROBIFUNCTIONAL MOLECULES AS TEAD INHIBITORS” (Merck Patent GmbH, priority 2021, published 2025).

By Kd is commonly meant the constant that tells how readily two partners part at equilibrium. As usually defined, the ΔTm is the change in melting temperature against a reference sample. As usually defined, the DC50 is the concentration at which degradation of the target reaches its halfway point.

The target in experiment [1] is T1, hsTEAD1 (209-426) (Homo sapiens (Human), UniProt P28347). As to the kind of experiment: Surface Plasmon Resonance (SPR) assay. The format is binding. To be noted: Biacore 4000, 15° C., 1:1 Langmuir model, read-out: KD TEAD1 (209-426). Here is the method: The kinetic and affinity parameters of protein-exemplary compound interactions were evaluated by SPR. hsTEAD1 (209-426) was immobilized onto a CM7 (Series S) sensor chip via the standard amine coupling procedure, at 15° C. Prior to immobilization, the carboxymethylated surface of the chip was activated with 400 mM 1-ethyl-3-(3-dimethylaminopropyl)-carbodiimide and 100 mM N-hydroxysuccinimide for 10 min. hsTEAD1 (209-426) was diluted to 11 μg/mL in 10 mM Bis-Tris at pH 6.5 and immobilized on the activated surface chip for 8 and 10 min, in order to reach 6000 to 9000 response units (RU). The remaining activated carboxymethylated groups were blocked with a 7 min injection of 1 M ethanolamine pH 8.5 after which the surface chip was washed with 0.5% (w/v) sodium dodecyl sulphate and 50 mM glycine. HBS-N, which consists of 10 mM HEPES pH 7.4 and 150 mM NaCl, was used as the background buffer during immobilization. Exemplary compounds were prediluted in DMSO, diluted 1:50 in running buffer (20 mM Tris pH 7.4, 150 mM NaCl, 1 mM DTT, 5 mM MgCl2, 0.1 mM EGTA, 0.05% CHAPS) and injected at ten different concentrations using two-fold dilution series, from 100 μM to 0.2 μM. A DMSO solvent correction (1%-3%) was performed to account for variations in bulk signal and to achieve high-quality data. Interaction analysis cycles consisted of a 240 sec sample injection (30 μL/min; association phase) followed by 600 sec of buffer flow (dissociation phase).
All sensorgrams were processed by first subtracting the binding response recorded from the control surface (reference spot), followed by subtracting of the buffer blank injection from the reaction spot. All datasets were fit to a simple 1:1 Langmuir interaction model to determine the kinetic rate constants, KD. Experiments were performed on a Biacore 4000 (Cytiva, Uppsala, Sweden) at 15° C. and the interactions were evaluated using the provided Biacore 4000 evaluation software.
(SPR reads the build-up and loss of mass on a sensor chip optically.)

Experiment [2] deals with T1, hsTEAD1 (209-426). As to the kind of experiment: Thermal shift measurement / Differential Scanning Fluorimetry (DSF). The format is binding. To be noted: 100 uM compound, 2 hours at 4° C., triplicates; read-out: ΔTm TEAD1 (209-426). Here is the method:
(§1) Interaction of exemplary compounds with the various TEAD isoforms TEAD1, TEAD2, TEAD3, and TEAD4 was performed in a DSF assay. YAP-binding domains (YBD) of the four isoforms were subcloned and heterogeneously expressed in E. coli as a host. Initial purification was perfomed by using affinity tags, which got removed by overnight protease treatment. Further purification of TEAD isoforms was performed by Size-Exclusion Chromatography (SEC). Target protein containing fractions were pooled, concentrated with an Amicon (10 KDa MWCO) and quantified using the Bradford assay. Exemplary compound testing in the DSF assay for determining the shift of the TEAD isoform melting temperatures has been performed as described below: DSF was performed in MicroAmpTM EnduraPlateTM Optical 96-Well Clear Reaction Plates (Applied Biosystems, Life Technologies, California, USA) using a QuantStudio 7 Flex Real-Time PCR System (Applied Biosystems). Protein samples were briefly centrifuged before preparation. The final reaction mixture (20 μL of total volume) contained 11.8 μM of […]1 (209-426), 7.3 μM of […]2 (217-447), 7.9 μM of […]3 (216-435) or 11.7 μM of […]4 (217-424), and 2 or 4-fold of Protein Thermal ShiftTM Dye (Applied Biosystems) diluted in protein buffer-20 mM Tris pH 8.0, 150 mM NaCl (+0.5 mM TCEP for TEAD1 experiments). Prior to the addition of the dye, proteins were incubated with either 1 μL DMSO 100% (apo) or 100 uM of each exemplary compound (1 μL at 2 mM in 100% DMSO added to the […] reaction mixture) for 2 hours at 4° C. The melting curve data was recorded from 25 to 90° C. with an increment rate of 0.016° C.s^-1. Excitation and emission filters were applied for Protein Thermal ShiftTM Dye (470 nm and 520 nm, respectively) and for ROX reference dye (580 nm and 623 nm, respectively). The melting temperatures (Tm) were obtained by calculating the midpoint of each transition, using the Protein Thermal Shift SoftwareTM version 1.3. The thermal stability effect of each compound (ΔTm) was calculated by subtracting the calculated Tm in presence and absence (apo) of compound. All samples were tested in triplicates.

Another experiment concerns the target hsTEAD3 (216-435) (Homo sapiens (Human), UniProt Q99594). Described as above. The format is binding. To be noted: 100 uM compound, 2 hours at 4° C., triplicates; read-out: ΔTm TEAD3 216-435. The protocol: as §1
Another experiment addresses hsTEAD2 (217-447) (Homo sapiens (Human), UniProt Q15562). Described as above. The format is binding. Conditions: 100 uM compound, 2 hours at 4° C., triplicates; read-out: ΔTm TEAD2 (217-447). The protocol: as §1
A further experiment addresses TEAD1 in NCI-H226 cells (Homo sapiens (Human), UniProt P28347). As to the kind of experiment: TEAD degradation in NCI-H226 cell line (immunofluorescence). The format is cell-based. An outline of the steps:
(§2)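 SK-HEP1 and NCI-H226 cells were treated in duplicate for 16 or 24 h at 37 °C with compound (10 points, 1:3, top 30 µM final). After fixation, TEAD1 was immunostained with anti-TEF1 and per-cell fluorescence quantified by high-content imaging. DC50 from curve fitting.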

A further experiment deals with hsTEAD4 (217-424) (Homo sapiens (Human), UniProt Q15561). As to the kind of experiment: Thermal shift measurement / Differential Scanning Fluorimetry (DSF). The format is binding. Conditions: 100 uM compound, 2 hours at 4° C., triplicates; read-out: ΔTm TEAD4 217-434. The protocol:
as §1
(In general: In DSF a fluorescence change marks the thermal transition of the protein.)

In a further experiment the target is TEAD1 in SK-HEP1 cells (Homo sapiens (Human), UniProt P28347). Description: TEAD degradation in SK-HEP1 cell line (immunofluorescence). The format is cell-based. An outline of the steps:
as §2

Setting [3] is: 24 hours, ranges, read-out: DC50 NCI-H226.
Setting [4] is: 24 h incubation, read-out: DC50 NCI-H226 24 h.
Where [5] appears, read: 24 h incubation, read-out: DC50 SK-HEP1 24 h.
The mark [6] stands for this setting: 16 h incubation, read-out: DC50 NCI-H226 16 h.
[7] abbreviates: 24 hours, ranges, read-out: DC50 SK-HEP1.

Where two headings read alike, the source gives them in different places.

Sequence of TEAD1 in NCI-H226 cells (P28347 whole entry): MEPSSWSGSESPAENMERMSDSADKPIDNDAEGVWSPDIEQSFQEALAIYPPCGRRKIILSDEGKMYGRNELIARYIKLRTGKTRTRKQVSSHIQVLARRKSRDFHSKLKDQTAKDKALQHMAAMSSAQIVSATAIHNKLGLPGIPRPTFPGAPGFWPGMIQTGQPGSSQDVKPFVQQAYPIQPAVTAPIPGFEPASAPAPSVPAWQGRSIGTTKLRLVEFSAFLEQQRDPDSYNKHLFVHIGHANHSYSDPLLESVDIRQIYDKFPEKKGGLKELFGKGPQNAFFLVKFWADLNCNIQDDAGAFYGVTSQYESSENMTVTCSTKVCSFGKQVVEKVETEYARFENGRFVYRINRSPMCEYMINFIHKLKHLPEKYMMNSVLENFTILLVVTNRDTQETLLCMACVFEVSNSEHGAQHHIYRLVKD
Sequence of TEAD1 in SK-HEP1 cells (P28347 whole entry): as above
Sequence of hsTEAD4 (217-424) (Q15561 217-434): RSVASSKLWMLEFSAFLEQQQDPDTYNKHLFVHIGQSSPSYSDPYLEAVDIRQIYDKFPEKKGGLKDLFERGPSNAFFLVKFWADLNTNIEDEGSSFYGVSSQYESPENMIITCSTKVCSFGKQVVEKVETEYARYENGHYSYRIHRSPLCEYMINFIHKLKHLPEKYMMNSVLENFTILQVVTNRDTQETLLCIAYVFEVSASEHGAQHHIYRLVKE
Sequence of hsTEAD2 (217-447) (Q15562 217-447): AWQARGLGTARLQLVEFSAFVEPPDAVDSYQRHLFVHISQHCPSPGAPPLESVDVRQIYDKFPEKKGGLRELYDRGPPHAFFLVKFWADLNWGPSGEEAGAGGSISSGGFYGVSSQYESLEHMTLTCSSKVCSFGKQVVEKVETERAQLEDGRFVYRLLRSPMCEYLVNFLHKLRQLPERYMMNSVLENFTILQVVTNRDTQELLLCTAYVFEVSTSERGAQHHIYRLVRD
Sequence of hsTEAD3 (216-435) (Q99594 216-435): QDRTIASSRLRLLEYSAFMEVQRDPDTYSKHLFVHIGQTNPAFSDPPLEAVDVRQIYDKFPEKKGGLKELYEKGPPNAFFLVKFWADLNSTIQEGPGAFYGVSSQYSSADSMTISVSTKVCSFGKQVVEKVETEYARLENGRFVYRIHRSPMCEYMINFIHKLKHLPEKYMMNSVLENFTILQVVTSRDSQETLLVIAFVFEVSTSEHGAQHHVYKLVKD
T1 sequence (P28347 209-426): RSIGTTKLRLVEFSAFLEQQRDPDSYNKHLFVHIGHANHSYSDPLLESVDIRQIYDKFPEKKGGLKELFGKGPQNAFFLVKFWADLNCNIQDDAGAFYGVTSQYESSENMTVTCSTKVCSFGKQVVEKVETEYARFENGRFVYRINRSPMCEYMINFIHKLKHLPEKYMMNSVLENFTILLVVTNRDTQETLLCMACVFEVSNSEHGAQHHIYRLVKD

`Cn1cc2c3cc(C(=O)NCCOCCOCCNC(=O)COCCOCCOCCOCCOCC(=O)Nc4cccc5c4C(=O)N(C4CCC(=O)NC4=O)C5=O)ccc3n(-c3ccc(C(F)(F)F)cc3)c2n1` (stereo not shown) [Compound 1, N′-[2-(2,6-dioxopiperidin-3-yl)-1,3-dioxo-2,3-dihydro-1H-isoindol-4-yl]-N-(2-{2-[2-({2-methyl-8-[4-(trifluoromethyl)phenyl]-2H,8H-pyrazolo[3,4-b]indol-5-yl}formamido)ethoxy]ethoxy}ethyl)-3,6,9,12,15-pentaoxaheptadecanediamide]: the dissociation constant (Kd) at hsTEAD1 (209-426) [1] is 1.87 µM. In addition, the ΔTm at 100 µM at hsTEAD1 (209-426) [2] stood at 4.7 °C; on hsTEAD3 (216-435), 0 °C; at hsTEAD2 (217-447), 0 °C.

In the case of `Cn1cc2c3cc(C(=O)NCCOCCOCCNC(=O)CCCCCCNc4cccc5c4C(=O)N(C4CCC(=O)NC4=O)C5=O)ccc3n(-c3ccc(C(F)(F)F)cc3)c2n1` (stereo not shown) [Compound 6, 7-{[2-(2,6-dioxopiperidin-3-yl)-1,3-dioxo-2,3-dihydro-1H-isoindol-4-yl]amino}-N-(2-{2-[2-({2-methyl-8-[4-(trifluoromethyl)phenyl]-2H,8H-pyrazolo[3,4-b]indol-5-yl}formamido)ethoxy]ethoxy}ethyl) heptanamide], the DC50 on TEAD1 in NCI-H226 cells (setting [3]) fell in the range of 0.1 to 1 µM. For the same molecule, the Kd on hsTEAD1 (209-426) [1] was 1.4 µM. Besides, the ΔTm at 100 µM was -1.1 °C on hsTEAD1 (209-426) [2] and 1.4 °C at hsTEAD4 (217-424).

`Cn1cc2c3cc(C(=O)NCCOCCOCCNC(=O)COc4cccc5c4C(=O)N(C4CCC(=O)NC4=O)C5=O)ccc3n(-c3ccc(C(F)(F)F)cc3)c2n1` (stereo not shown) [Compound 5, 2-{[2-(2,6-dioxopiperidin-3-yl)-1,3-dioxo-2,3-dihydro-1H-isoindol-4-yl]oxy}-N-(2-{2-[2-({2-methyl-8-[4-(trifluoromethyl)phenyl]-2H,8H-pyrazolo[3,4-b]indol-5-yl}formamido)ethoxy]ethoxy}ethyl)acetamide]: the figures for the DC50 on TEAD1 in NCI-H226 cells (setting [4]), on TEAD1 in NCI-H226 cells (setting [3]) and on TEAD1 in SK-HEP1 cells (setting [5]) were 20 µM, 9 to 30 µM and 30 µM, respectively. Besides, the Kd on hsTEAD1 (209-426) [1] was determined as 1.9 µM. Moreover, the ΔTm at 100 µM on hsTEAD1 (209-426) [2] was 3.9 °C; on hsTEAD4 (217-424), 2.8 °C; at hsTEAD3 (216-435) it was 0.9 °C; on hsTEAD2 (217-447) it was -0.1 °C.

For the molecule `Cc1ncsc1-c1ccc(CNC(=O)[C@@H]2C[C@@H](O)CN2C(=O)[C@@H](NC(=O)CCCCCC(=O)NCCOCCOCCNC(=O)c2ccc3c(c2)c2cn(C)nc2n3-c2ccc(C(F)(F)F)cc2)C(C)(C)C)cc1` [Compound 4, N-[(2S)-1-[(2S,4R)-4-hydroxy-2-({[4-(4-methyl-1,3-thiazol-5-yl)phenyl]methyl}carbamoyl)pyrrolidin-1-yl]-3,3-dimethyl-1-oxobutan-2-yl]-N′-(2-{2-[2-({2-methyl-8-[4-(trifluoromethyl)phenyl]-2H,8H-pyrazolo[3,4-b]indol-5-yl}formamido)ethoxy]ethoxy}ethyl) heptanediamide], the DC50 at TEAD1 in NCI-H226 cells (setting [6]) is 0.7 µM; at TEAD1 in NCI-H226 cells (setting [4]), 0.9 µM; on TEAD1 in NCI-H226 cells (setting [3]) it was 1 to 3 µM; at TEAD1 in SK-HEP1 cells (16 h incubation, read-out: DC50 SK-HEP1 16 h), 2 µM; on TEAD1 in SK-HEP1 cells (setting [5]) it was 2 µM; at TEAD1 in SK-HEP1 cells (setting [7]) it was 0.1 to 1 µM. In addition, the Kd on hsTEAD1 (209-426) [1] came out at 0.32 µM. The ΔTm at 100 µM is 2.9 °C on hsTEAD1 (209-426) [2], 0 °C on hsTEAD4 (217-424), 0.6 °C on hsTEAD3 (216-435) and 1 °C at hsTEAD2 (217-447).

Regarding `Cc1ncsc1-c1ccc(CNC(=O)[C@H]2C[C@H](O)CN2C(=O)[C@H](NC(=O)COCCOCCOCCOCCOCCNC(=O)c2ccc3c(c2)c2cn(C)nc2n3-c2ccc(C(F)(F)F)cc2)C(C)(C)C)cc1` [Compound 11, (2R,4S)-1-[(2R)-3,3-dimethyl-2-[17-({2-methyl-8-[4-(trifluoromethyl)phenyl]-2H,8H-pyrazolo[3,4-b]indol-5-yl}formamido)-3,6,9,12,15-pentaoxaheptadecanamido]butanoyl]-4-hydroxy-N-{[4-(4-methyl-1,3-thiazol-5-yl)phenyl]methyl}pyrrolidine-2-carboxamide], the DC50 at TEAD1 in NCI-H226 cells (setting [3]) and at TEAD1 in SK-HEP1 cells (setting [7]) was 0.1 to 1 µM in each case. Moreover, the ΔTm at 100 µM on hsTEAD1 (209-426) [2] was 4.5 °C; at hsTEAD4 (217-424), -0.2 °C; at hsTEAD3 (216-435), 1.3 °C; at hsTEAD2 (217-447) it was 0.3 °C.

For the molecule `Cc1ncsc1-c1ccc(CNC(=O)[C@@H]2C[C@@H](O)CN2C(=O)[C@@H](NC(=O)COCCOCCOCCOCC(=O)NCCOCCOCCNC(=O)c2ccc3c(c2)c2cn(C)nc2n3-c2ccc(C(F)(F)F)cc2)C(C)(C)C)cc1` [Compound 3, N-[(2S)-1-[(2S,4R)-4-hydroxy-2-({[4-(4-methyl-1,3-thiazol-5-yl)phenyl]methyl}carbamoyl)pyrrolidin-1-yl]-3,3-dimethyl-1-oxobutan-2-yl]-N′-(2-{2-[2-({2-methyl-8-[4-(trifluoromethyl)phenyl]-2H,8H-pyrazolo[3,4-b]indol-5-yl}formamido)ethoxy]ethoxy}ethyl)-3,6,9,12-tetraoxatetradecanediamide], the DC50 on TEAD1 in NCI-H226 cells (setting [6]) was 3 µM; at TEAD1 in NCI-H226 cells (setting [4]), 10 µM. The Kd at hsTEAD1 (209-426) [1] is 0.32 µM. In addition, the ΔTm at 100 µM on hsTEAD1 (209-426) [2] is 3.4 °C; at hsTEAD4 (217-424), 0.7 °C.

Take `Cn1cc2c3cc(C(=O)NCCOCCOCCNC(=O)COCCOCCOCC(=O)Nc4cccc5c4C(=O)N(C4CCC(=O)NC4=O)C5=O)ccc3n(-c3ccc(C(F)(F)F)cc3)c2n1` (stereo not shown) [Compound 2, 2-{2-[2-({[2-(2,6-dioxopiperidin-3-yl)-1,3-dioxo-2,3-dihydro-1H-isoindol-4-yl]carbamoyl}methoxy)ethoxy]ethoxy}-N-(2-{2-[2-({2-methyl-8-[4-(trifluoromethyl)phenyl]-2H,8H-pyrazolo[3,4-b]indol-5-yl}formamido)ethoxy]ethoxy}ethyl)acetamide]: the Kd on hsTEAD1 (209-426) [1] stood at 1.52 µM. Also, the ΔTm at 100 µM on hsTEAD1 (209-426) [2] came out at 4.1 °C; at hsTEAD4 (217-424), 0 °C; on hsTEAD3 (216-435) it was 1.3 °C; on hsTEAD2 (217-447) it was 0.7 °C.
